Here are results for nine molecules from ChEMBL document CHEMBL1201862, “PubChem BioAssay data set” (2004).

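Assay format: 96-well plates, 48-hour exposure. GI50: concentration for 50% inhibition of growth.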 The source made the active and inactive calls. No stated cut-off is given here; in the data, active = GI50 up to about 1.1 µM and inactive = higher. Some results are limits rather than exact numbers.

Assay in all cases: NCI tumour cell line growth inhibition, 48 h
The test system of experiment [1] is SNB-78.
For experiment [2], the system named is DLD-1.
In experiment [3] the test system is DMS-114.
The subject of experiment [4] is M19-MEL.
For experiment [5], the system named is DMS-273.
Experiment [6] relates to RXF 631.
Experiment [7] relates to LXFL 529.
Experiment [8] relates to HOP-18.
Experiment [9] relates to XF498.

`NCCCNCCSSCCCCS(=O)O`: the GI50 in experiment [1] is 22.8 µM (inactive); in [2] it was 45.8 µM (inactive); in [3], > 100 µM (inactive); in experiment [4], 12.6 µM (inactive); in [5], 35.8 µM (inactive); in [6], > 100 µM (inactive). Moreover, the GI50 in [7] is 23 µM (inactive); in experiment [8], > 100 µM (inactive); in [9] it was 18.2 µM (inactive).
Regarding `O=C1/C(=C/c2ccc(Cl)cc2)CNC/C1=C\c1ccc(Cl)cc1`, the GI50 in experiment [1] was 2.65 µM (inactive); in experiment [2] it was 2.38 µM (inactive); in [4], 2.1 µM (inactive); in experiment [5] it was 1.98 µM (inactive); in experiment [6] it was 2.79 µM (inactive); in experiment [7], 1.09 µM (active). For the same molecule, the GI50 is 4.89 µM (inactive) in [8] and 2.83 µM (inactive) in experiment [9].
For the molecule `Cc1ccc(C)c(NC(=O)CCc2nnc(S)[nH]2)c1`, the GI50 in experiment [1] was > 100 µM (inactive); in [2], 54.1 µM (inactive); in experiment [3], 28.7 µM (inactive); in experiment [4] it was > 100 µM (inactive); in experiment [5], > 100 µM (inactive); in experiment [6], > 100 µM (inactive). Besides, the GI50 in experiment [7], in experiment [8] and in experiment [9] was > 100 µM (inactive) each time.
For `CN(C)CCC(CCN(C)C)=NOC(=O)c1ccccc1`, the GI50 in experiment [2], in [3], in experiment [4], in [5], in experiment [6] and in experiment [7] was > 100 µM (inactive) each time. Besides, the GI50 in [8] and in experiment [9] was > 100 µM (inactive) each time.
Turning to `CC(C)(C)c1cc(Cc2ccc([N+](C)(C)C)cc2)c(O)c(C(C)(C)C)c1`, the GI50 in experiment [1] is 14.9 µM (inactive); in experiment [2], 45.4 µM (inactive); in experiment [3] it was 7.19 µM (inactive); in experiment [4], 12.9 µM (inactive); in experiment [5] it was 9.64 µM (inactive); in experiment [6], 45.6 µM (inactive). Also, the GI50 in [7] is 13.8 µM (inactive); in experiment [8], 20.1 µM (inactive); in experiment [9], 13 µM (inactive).
As to `NC(=S)N/N=C(\C(=O)Nc1cccc([N+](=O)[O-])c1)c1nc2ccc([N+](=O)[O-])cc2nc1O`, the GI50 in experiment [2] is 42 µM (inactive); in [3], 20.7 µM (inactive); in [4], > 100 µM (inactive); in experiment [5] it was 44.4 µM (inactive); in [6], > 100 µM (inactive); in experiment [7], 71.1 µM (inactive). The values for the GI50 in experiment [8] and in experiment [9] were 15 µM (inactive) and 36.1 µM (inactive), respectively.
For the molecule `Brc1ccc(/C=N/C23CC4CC(CC(C4)C2)C3)cc1`, the GI50 in experiment [1], in experiment [2], in [3], in experiment [4], in experiment [5] and in experiment [6] was > 100 µM (inactive) in each case. Besides, the GI50 in [7], in experiment [8] and in experiment [9] was > 100 µM (inactive) each time.
As for `O=C(Nc1nc2ncn(CCOC(=O)c3ccccc3)c2c(=O)[nH]1)c1ccccc1`, the GI50 was > 100 µM (inactive) in experiment [1]; 15.4 µM (inactive) in [6]; 22.7 µM (inactive) in [7]; > 100 µM (inactive) in experiment [8]; 20.2 µM (inactive) in experiment [9].
In the case of `CC(=O)N1C/C(=C\c2ccc(N(C)C)cc2)C(=O)/C(=C/c2ccc(N(C)C)cc2)C1`, the GI50 in [1] was 85.9 µM (inactive); in experiment [2], 68.1 µM (inactive); in experiment [3], 30.2 µM (inactive); in experiment [4], 33.6 µM (inactive); in experiment [5], 49.8 µM (inactive); in [6], 55.2 µM (inactive). Also, the GI50 was 64 µM (inactive) in [7], 71.9 µM (inactive) in experiment [8] and > 100 µM (inactive) in experiment [9].
